Source: US6649654B1, “Methods for identifying and using IKK inhibitors” (The Regents of the University of California, priority 1999, dated 2003)
Entries after “also recorded” stand apart in the source; their conditions may differ.

Key:
Oct1 = molecular target: T1, Oct1 (Homo sapiens, UniProt P14859); test: Oct1 DNA binding activity; type: cell-based
T1 construct: endogenous in cells; host or cells: Jurkat (PGA1); cells of the 15dPGJ2 experiment not clearly stated
T1 sequence (P14859 1-743): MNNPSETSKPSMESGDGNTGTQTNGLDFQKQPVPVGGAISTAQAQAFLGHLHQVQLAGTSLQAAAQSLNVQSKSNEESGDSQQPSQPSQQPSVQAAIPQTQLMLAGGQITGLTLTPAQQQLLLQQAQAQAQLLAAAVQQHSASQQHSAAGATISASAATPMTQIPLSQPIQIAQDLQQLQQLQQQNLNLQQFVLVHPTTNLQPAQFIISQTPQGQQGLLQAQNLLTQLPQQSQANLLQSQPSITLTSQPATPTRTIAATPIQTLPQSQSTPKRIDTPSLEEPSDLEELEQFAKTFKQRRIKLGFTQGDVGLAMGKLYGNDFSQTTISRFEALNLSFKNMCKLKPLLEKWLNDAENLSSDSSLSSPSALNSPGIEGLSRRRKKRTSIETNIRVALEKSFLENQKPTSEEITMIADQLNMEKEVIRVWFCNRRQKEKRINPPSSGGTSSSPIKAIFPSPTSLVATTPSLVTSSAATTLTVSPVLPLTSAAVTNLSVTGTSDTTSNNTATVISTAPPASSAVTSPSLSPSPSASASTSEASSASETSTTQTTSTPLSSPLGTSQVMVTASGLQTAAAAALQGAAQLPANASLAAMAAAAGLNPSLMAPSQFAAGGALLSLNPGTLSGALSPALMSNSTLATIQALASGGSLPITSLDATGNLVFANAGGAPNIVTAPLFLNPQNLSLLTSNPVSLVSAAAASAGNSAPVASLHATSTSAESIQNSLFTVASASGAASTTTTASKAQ

wild-type IKKβ = test: 2XNFκB-LUC reporter in HeLa cells with NIK and wild-type IKKβ; type: cell-based; conditions: luciferase at 24 hours, FIG. 6E
Method: Recombinant IKKβ(C179A) was also resistant to concentrations of 15dPGJ2 that were inhibitory to wild-type IKKβ (as shown in FIG. 6D), and also to PGA1. An NF-κB dependent transcriptional reporter (2XNFκB-LUC) was preincubated with expression vector encoding either wild-type IKKβ or IKKβ(C179A). A NIK expression vector was included to ensure maximal IKK activation. […] FIG. 6E provides the results for HeLa cells transiently transfected with a 2×NF-κB-LUC reporter, a NIK expression vector and expression vectors for wild type IKKβ or IKKβ(C179A). At 3 hours post-transfection, cells were treated with 15dPGJ2 and at 24 hours, the luciferase activities were determined for duplicate samples. In each case, the maximal activity achieved in the absence of inhibitor was given an arbitrary value of 100% and the other values were calculated relative to this one.

[1] = test system: inducible nitric oxide synthase (iNOS); conditions: activated monocytes; cited from earlier work
IKK = IKK (Homo sapiens, UniProt O14920+O15111); test: In vitro kinase assay of IKK immunoprecipitated from TNFα-stimulated HeLa cells; type: biochemical; design: Endogenous IKK was immunoprecipitated from TNFα-stimulated HeLa cells; endogenous in cells; host or cells: HeLa; conditions: for IC50: IKK immunoprecipitated from TNFα-stimulated HeLa cells
Method: Cell lysates were incubated with anti-IKKα (Pharmingen), anti-HA (12CA5; Pharmingen), anti-JNK1 (333.8; Pharmingen), or anti-p38 (New England Biolabs) for 2 hours. Then, 15 μl protein A-Sepharose (Sigma) were added and the mixture was allowed to incubate for 1 hour. After extensive washing, kinase assays were performed as known in the art (See e.g., DiDonato et al., Nature 388:548-554 [1997]). Endogenous IKK, HA-tagged IKKα, endogenous JNK1, and p38 activities were determined with GST-1κBα(1-54), GST-c-Jun(1-79), and GST-ATF2 as substrates.
Endogenous IKK was immunoprecipitated from TNFα-stimulated HeLa cells and the kinase activity determined in the presence of different concentrations of PGA1 (the results of which are shown in FIG. 2B) or 15dPGJ2 (the results of which are shown in FIG. 2C).
In this Example, experiments to determined the effects of arachidonic acid and its metabolites on IKK activity in vivo and in vitro are described. HeLa cells were treated with 50 μM AA, PGA1, PGB2, PGD2, PGE1, PGE2, PGF1α, or thromboxane B2 (T×B2), 1 μM LTB4, or 5 μM 15dPGJ2, for 2 hours in RPMI containing 10% FCS, and stimulated with TNFα for 10 minutes. Cell lysates were then assayed for endogenous IKK activity and recovery. In this FIGURE, “control” indicates unstimulated cells, and “-” indicates treatment with diluent alone. In addition, IKK was immunoprecipitated from TNFα-stimulated HeLA cells and incubated in vitro with 100 μM AA, PGA1, PGB2, PGD2, PGE1, PGE2, PGF1α, or T×B2, 2 μM LTB4 or 10 μM 15dPGJ2, followed by kinase assay and immunoblot analysis. In this FIGURE, “control” indicates to unstimulated cells, and “-”indicates 1% ethanol.
Many protein kinase inhibitors compete with binding of ATP, but preincubation in the presence of increasing concentrations of ATP had no effect on inhibition of IKKβ by 15dPGJ2, as indicated in FIG. 6A. […] The pellets were rinsed and kinase activity was measured.

Chain of IKK (O14920 whole entry): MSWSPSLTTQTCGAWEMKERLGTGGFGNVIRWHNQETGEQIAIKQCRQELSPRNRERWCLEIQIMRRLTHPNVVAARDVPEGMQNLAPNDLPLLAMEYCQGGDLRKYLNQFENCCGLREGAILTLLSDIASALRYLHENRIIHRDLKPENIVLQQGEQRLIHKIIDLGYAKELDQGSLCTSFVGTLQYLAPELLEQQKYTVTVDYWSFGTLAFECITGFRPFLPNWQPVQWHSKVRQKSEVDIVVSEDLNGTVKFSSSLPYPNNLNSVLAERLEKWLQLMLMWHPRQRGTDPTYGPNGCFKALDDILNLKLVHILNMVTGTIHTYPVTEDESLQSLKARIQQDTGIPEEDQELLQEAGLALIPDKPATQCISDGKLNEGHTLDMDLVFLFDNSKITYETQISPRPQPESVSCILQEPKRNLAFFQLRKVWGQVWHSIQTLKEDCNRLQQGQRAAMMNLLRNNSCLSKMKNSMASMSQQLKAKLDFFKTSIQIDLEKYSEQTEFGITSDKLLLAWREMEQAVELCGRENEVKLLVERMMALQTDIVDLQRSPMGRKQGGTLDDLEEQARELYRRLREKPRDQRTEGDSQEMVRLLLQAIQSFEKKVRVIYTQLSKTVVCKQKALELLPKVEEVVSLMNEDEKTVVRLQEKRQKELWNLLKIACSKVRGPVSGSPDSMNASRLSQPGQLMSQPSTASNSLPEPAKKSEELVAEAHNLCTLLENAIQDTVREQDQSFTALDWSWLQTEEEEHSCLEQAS
Chain of IKK (O15111 whole entry): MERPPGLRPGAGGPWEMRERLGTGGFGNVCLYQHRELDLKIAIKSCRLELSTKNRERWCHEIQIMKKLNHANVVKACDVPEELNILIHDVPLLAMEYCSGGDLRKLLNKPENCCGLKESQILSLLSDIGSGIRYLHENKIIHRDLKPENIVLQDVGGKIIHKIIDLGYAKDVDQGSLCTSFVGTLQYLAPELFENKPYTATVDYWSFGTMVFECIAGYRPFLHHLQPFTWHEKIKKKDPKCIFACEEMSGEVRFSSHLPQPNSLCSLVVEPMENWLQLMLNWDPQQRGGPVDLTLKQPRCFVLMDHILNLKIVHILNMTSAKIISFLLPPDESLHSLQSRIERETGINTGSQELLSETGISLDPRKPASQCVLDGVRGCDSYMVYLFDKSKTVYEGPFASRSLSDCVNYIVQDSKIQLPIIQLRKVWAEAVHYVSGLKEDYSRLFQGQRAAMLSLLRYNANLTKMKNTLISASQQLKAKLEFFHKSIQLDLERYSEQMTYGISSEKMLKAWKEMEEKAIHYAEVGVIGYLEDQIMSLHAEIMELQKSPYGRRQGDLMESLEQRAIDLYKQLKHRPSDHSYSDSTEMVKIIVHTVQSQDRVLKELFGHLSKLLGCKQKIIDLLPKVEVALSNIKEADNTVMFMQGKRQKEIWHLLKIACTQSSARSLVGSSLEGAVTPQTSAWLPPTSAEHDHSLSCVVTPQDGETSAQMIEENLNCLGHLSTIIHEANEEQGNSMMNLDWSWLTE
Chain of IKK (Q9Y6K9 whole entry partner): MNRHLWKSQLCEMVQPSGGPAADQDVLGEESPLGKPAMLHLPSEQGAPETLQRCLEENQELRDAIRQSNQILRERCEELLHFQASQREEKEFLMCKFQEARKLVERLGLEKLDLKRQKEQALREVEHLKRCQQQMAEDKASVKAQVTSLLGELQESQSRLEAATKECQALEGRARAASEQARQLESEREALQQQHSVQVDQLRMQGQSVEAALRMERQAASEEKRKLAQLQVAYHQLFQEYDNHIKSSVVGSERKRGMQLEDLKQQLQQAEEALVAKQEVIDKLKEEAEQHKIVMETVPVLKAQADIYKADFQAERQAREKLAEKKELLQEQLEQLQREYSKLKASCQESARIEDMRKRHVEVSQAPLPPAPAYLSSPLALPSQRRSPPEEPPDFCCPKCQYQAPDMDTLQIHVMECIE

| effect on Oct1 DNA-binding activity (Oct1; 15dPGJ2, data not shown) | IC50 (IKK) [µM] | SMILES | sensitivity of NF-κB transcriptional activity through wild-type IKKβ (wild-type IKKβ) | production of inducible nitric oxide synthase (iNOS) [1] | effect of pre-incubation with increasing ATP on inhibition (ATP competition) (IKK; 15dPGJ2 0-30 μM with or without ATP, 4° C., 30 minutes) | effect on Oct1 DNA binding (Oct1; PGA1 (120 μM), FIG. 1A) |
| --- | --- | --- | --- | --- | --- | --- |
| did not inhibit | 7.08 | CCCCC/C=C/C=C1/C(=O)C=C[C@@H]1C/C=C\CCCC(=O)O [15dPGJ2, 15-deoxy-Δ^12-14-PGJ2] | highly sensitive | inhibits | had no effect; also recorded: not a competitive inhibitor of ATP binding |  |
|  | 79.8 | CCCCC[C@H](O)/C=C/[C@H]1C=CC(=O)C1CCCCCCC(=O)O (stereo partly shown) [PGA1, prostaglandin A1] |  |  |  | did not inhibit; also recorded: No effects |
